{
  "source": "paper PMC3697191",
  "about": "(Journal of Pharmacy & Bioallied Sciences, 2013)",
  "key": {"[1]": {"system": "Mycobacterium tuberculosis H37Rv", "assay": "Microplate Alamar Blue assay", "format": "cell-based", "details": "for MIC: Mycobacterium tuberculosis, H37RV, 120 h, read-out: M. tuberculosis MIC, H37Rv, microplate Alamar Blue assay; for times more active than Pyrazinamide (MIC) / times more active than streptomycin (MIC): M. tuberculosis H37Rv"}, "in vitro": {"assay": "in vitro", "details": "mouse"}, "[2]": {"system": "mouse embryonic fibroblasts cell line (NIH 3T3)", "details": "SI = IC50 (NIH 3T3) / MIC (M. tuberculosis H37Rv)"}, "B. substilis": {"system": "B. substilis", "assay": "MIC by two-fold serial dilution", "format": "cell-based, Bacillus subtilis"}},
  "data": [
    {"smiles": "NC(=O)c1cnccn1", "note": "[Pyrazinamide, reference compound]", "values": [
      {"measurement": "MIC", "setting": "[1]", "result": 25.4, "unit": "µM"}
    ]},
    {"smiles": "[H]/N=C(/N)N[C@H]1[C@H](O)[C@@H](O)[C@H](O[C@@H]2O[C@@H](C)[C@](O)(C=O)[C@H]2O[C@@H]2O[C@@H](CO)[C@H](O)[C@@H](O)[C@@H]2NC)[C@@H](N/C(N)=N\\[H])[C@@H]1O", "note": "[Streptomycin, reference compound]", "values": [
      {"measurement": "MIC", "setting": "[1]", "result": 11, "unit": "µM"}
    ]},
    {"smiles": "O=C1C(=NNc2nc(-c3ccccc3)cs2)C(N=Cc2ccccc2Cl)=NN1c1ccccc1", "note": "[TZP4b, 3-[[(2-chlorophenyl)methylidene]amino]-1-phenyl-4-[2-(4-phenyl-1,3-thiazol-2-yl) hydrazin-1-ylidene]-4,5-dihydro-1H-pyrazol-5-one]", "values": [
      {"measurement": "IC50", "setting": "in vitro", "result": 0.99, "unit": "mM"}
    ]},
    {"smiles": "O=C1C(=NNc2nc(-c3ccccc3)cs2)C(N=Cc2cccc(Cl)c2)=NN1c1ccccc1", "note": "[TZP4c, 3-[[(3-chlorophenyl)methylidene]amino]-1-phenyl-4-[2-(4-phenyl-1,3-thiazol-2-yl) hydrazin-1-ylidene]-4,5-dihydro-1H-pyrazol-5-one]", "values": [
      {"measurement": "Selectivity index", "setting": "[2]", "result": 82.85},
      {"measurement": "IC50", "setting": "in vitro", "result": "> 1", "unit": "mM"}
    ]},
    {"smiles": "O=C1C(=NNc2nc(-c3ccccc3)cs2)C(N=Cc2ccc(Cl)cc2)=NN1c1ccccc1", "note": "[TZP4d, 3-[[(4-chlorophenyl)methylidene]amino]-1-phenyl-4-[2-(4-phenyl-1,3-thiazol-2-yl) hydrazin-1-ylidene]-4,5-dihydro-1H-pyrazol-5-one]", "values": [
      {"measurement": "Selectivity index", "setting": "[2]", "result": 22.37},
      {"measurement": "IC50", "setting": "in vitro", "result": "> 1", "unit": "mM"}
    ]},
    {"smiles": "O=C1C(=NNc2nc(-c3ccccc3)cs2)C(N=Cc2ccccc2O)=NN1c1ccccc1", "note": "[TZP4f, 3-[[(2-hydroxyphenyl)methylidene]amino]-1-phenyl-4-[2-(4-phenyl-1,3-thiazol-2-yl) hydrazin-1-ylidene]-4,5-dihydro-1H-pyrazol-5-one]", "values": [
      {"measurement": "MIC", "setting": "[1]", "result": 53.6, "unit": "µM"},
      {"measurement": "Selectivity index", "setting": "[2]", "result": 24.44}
    ]},
    {"smiles": "O=C1C(=NNc2nc(-c3ccccc3)cs2)C(N=Cc2ccc(O)cc2O)=NN1c1ccccc1", "note": "[TZP4g, 3-[[(2,4-dihydroxyphenyl)methylidene]amino]-1-phenyl-4-[2-(4-phenyl-1,3-thiazol-2-yl) hydrazin-1-ylidene]-4,5-dihydro-1H-pyrazol-5-one]", "values": [
      {"measurement": "times more active than Ciprofloxacin (MIC)", "setting": "B. substilis", "result": 1.45},
      {"measurement": "times more active than Pyrazinamide (MIC)", "setting": "[1]", "result": 1.69},
      {"measurement": "times more active than streptomycin (MIC)", "setting": "[1]", "result": 3.91},
      {"measurement": "MIC", "setting": "[1]", "result": 12.9, "unit": "µM"},
      {"measurement": "Selectivity index", "setting": "[2]", "result": 168.88},
      {"measurement": "IC50", "setting": "in vitro", "result": "> 1", "unit": "mM"}
    ]},
    {"smiles": "O=C1C(=NNc2nc(-c3ccccc3)cs2)C(N=Cc2ccc(O)c(O)c2)=NN1c1ccccc1", "note": "[TZP4h, 3-[[(3,4-dihydroxyphenyl)methylidene]amino]-1-phenyl-4-[2-(4-phenyl-1,3-thiazol-2-yl) hydrazin-1-ylidene]-4,5-dihydro-1H-pyrazol-5-one]", "values": [
      {"measurement": "times more active than Ciprofloxacin (MIC)", "setting": "B. substilis", "result": 1.45},
      {"measurement": "times more active than Pyrazinamide (MIC)", "setting": "[1]", "result": 3.9},
      {"measurement": "times more active than streptomycin (MIC)", "setting": "[1]", "result": 1.69},
      {"measurement": "MIC", "setting": "[1]", "result": 6.48, "unit": "µM"},
      {"measurement": "Selectivity index", "setting": "[2]", "result": 199.07}
    ]},
    {"smiles": "COc1cccc(C=NC2=NN(c3ccccc3)C(=O)C2=NNc2nc(-c3ccccc3)cs2)c1", "note": "[TZP4i, 3-[[(3-methoxyphenyl)methylidene]amino]-1-phenyl-4-[2-(4-phenyl-1,3-thiazol-2-yl) hydrazin-1-ylidene]-4,5-dihydro-1H-pyrazol-5-one]", "values": [
      {"measurement": "MIC", "setting": "[1]", "result": 26, "unit": "µM"}
    ]},
    {"smiles": "COc1cc(C=NC2=NN(c3ccccc3)C(=O)C2=NNc2nc(-c3ccccc3)cs2)ccc1O", "note": "[TZP4j, 3-[[(4-hydroxy-3-methoxyphenyl)methylidene]amino]-1-phenyl-4-[2-(4-phenyl-1,3-thiazol-2-yl) hydrazin-1-ylidene]-4,5-dihydro-1H-pyrazol-5-one]", "values": [
      {"measurement": "times more active than Ciprofloxacin (MIC)", "setting": "B. substilis", "result": 2.99},
      {"measurement": "MIC", "setting": "[1]", "result": 25.2, "unit": "µM"}
    ]},
    {"smiles": "CN(C)c1ccc(C=NC2=NN(c3ccccc3)C(=O)C2=NNc2nc(-c3ccccc3)cs2)cc1", "note": "[TZP4k, 3-[{[4-(dimethylamino)phenyl]methylidene}amino]-1-phenyl-4-[2-(4-phenyl-1,3-thiazol-2-yl) hydrazin-1-ylidene]-4,5-dihydro-1H-pyrazol-5-one]", "values": [
      {"measurement": "MIC", "setting": "[1]", "result": 13, "unit": "µM"}
    ]},
    {"smiles": "O=C1C(=NNc2nc(-c3ccccc3)cs2)C(N=Cc2ccc([N+](=O)[O-])cc2)=NN1c1ccccc1", "note": "[TZP4l, 3-[[(4-nitrophenyl)methylidene]amino]-1-phenyl-4-[2-(4-phenyl-1,3-thiazol-2-yl) hydrazin-1-ylidene]-4,5-dihydro-1H-pyrazol-5-one]", "values": [
      {"measurement": "Selectivity index", "setting": "[2]", "result": 20.32},
      {"measurement": "IC50", "setting": "in vitro", "result": "> 1", "unit": "mM"}
    ]}
  ]
}
